Experimental data reported in patent US9999222B2, “Herbicidal combination comprising azines” (BASF SE, priority 2014, dated 2018).
Read-outs that look alike come from different tables or passages of the source.

Legend:
Assay in all cases: Greenhouse test, pre-emergence treatment
POLCO = format: in vivo, Polygonum convolvulus; conditions: Fallopia convolvulus, pre-emergence, 480 h, 20 g ai/ha, 20 DAT; read-out: observed % activity
In short: (§1)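 Seeds were sown in loamy sand with about 3.0% humus, and compounds in water were sprayed immediately after sowing, alone or as combinations formulated as 10% emulsion concentrates. Plants grew under hoods until rooted, at 10-25 °C or 20-35 °C by species, for 2 to 4 weeks. Damage was scored 0-100 (100 = no emergence or complete destruction), and Colby expected values were E=X+Y−(X·Y/100).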

KCHSC = format: in vivo, Kochia scoparia; conditions: Bassia scoparia, pre-emergence, 480 h
In short: as §1

ALOMY = format: in vivo, Alopecurus myosuroides; conditions: Alopecurus myosuroides, pre-emergence, 480 h
In short: as §1

BRADC = format: in vivo, Brachiaria decumbens; conditions: Urochloa decumbens, pre-emergence, 480 h
In short: as §1

GALAP = format: in vivo, Galium aparine; conditions: Galium aparine, pre-emergence, 480 h, 40 g ai/ha, 20 DAT; read-out: observed % activity
In short: as §1

LOLMU = format: in vivo, Lolium multiflorum; conditions: Lolium multiflorum, pre-emergence, 480 h, pre-emergence, read-out: observed % activity 20 DAT
In short: as §1

SORHA = format: in vivo, Sorghum halepense; conditions: Sorghum halepense, pre-emergence, 480 h; 40 g ai/ha, 20 DAT; read-out: observed % activity
PHACA = format: in vivo, Phalaris canariensis; conditions: Phalaris canariensis, pre-emergence, 480 h
In short: as §1

SETFA = format: in vivo, Setaria faberi; conditions: Setaria faberi, 480 h, use rate 30 g ai/ha, read-out: observed % activity 20 DAT
In short: as §1

ECHCG = format: in vivo, Echinocloa crus-galli; conditions: Echinochloa crus-galli, 480 h, read-out: observed % activity 20 DAT
In short: as §1

AVEFA = format: in vivo, Avena fatua; conditions: pre-emergence
In short: as §1

VIOAR = format: in vivo, Viola arvensis; conditions: use rate 30 g ai/ha, 20 DAT
In short: as §1

[1] = 10 g ai/ha, 20 DAT, read-out: observed % activity
[2] = 20 g ai/ha, 20 DAT, read-out: observed % activity
[3] = 40 g ai/ha, 20 DAT, read-out: observed % activity
[4] = use rate 30 g ai/ha, read-out: observed % activity 20 DAT
[5] = use rate 60 g ai/ha, read-out: observed % activity 20 DAT
[6] = 10 g ai/ha, read-out: observed % activity 20 DAT
[7] = 20 g ai/ha, read-out: observed % activity 20 DAT
[8] = 40 g ai/ha, read-out: observed % activity 20 DAT
[9] = use rate 60 g ai/ha, 20 DAT, read-out: observed % activity 20 DAT
[10] = 30 g ai/ha, read-out: observed % activity 20 DAT

Q: Which inhibition at 20 g/ha (POLCO) does the source give for `CC(C)N(C(=O)COc1nnc(C(F)(F)F)s1)c1ccc(F)cc1` [Flufenacet, flufenacet] here?
A: 0%

Q: What about the inhibition at 10 g/ha (KCHSC; [1]) of the same compound?
A: 0%

Q: What about the inhibition at 20 g/ha (KCHSC; [2]) of the same compound?
A: 0%

Q: What about the inhibition at 40 g/ha (KCHSC; [3]) of the same compound?
A: 0%

Q: What about the inhibition at 30 g/ha (KCHSC; [4]) of the same compound?
A: 0%

Q: What about the inhibition at 60 g/ha (KCHSC; [5]) of the same compound?
A: 0%

Q: What about the inhibition at 10 g/ha (ALOMY; [1]) of the same compound?
A: 28%

Q: What about the pest or weed control at 10 g/ha (ALOMY; [6]) of the same compound?
A: 25%

Q: And the pest or weed control at 20 g/ha (ALOMY; [7])?
A: 70%

Q: And the pest or weed control at 40 g/ha (ALOMY; [8])?
A: 75%

Q: And the inhibition at 30 g/ha (ALOMY; [4])?
A: 75%

Q: And the pest or weed control at 60 g/ha (ALOMY; [9])?
A: 80%

Q: What about the inhibition at 60 g/ha (ALOMY; [5]) of the same compound?
A: 80%

Q: What about the inhibition at 40 g/ha (BRADC; [3]) of the same compound?
A: 65%

Q: And the pest or weed control at 10 g/ha (BRADC; [6])?
A: 45%

Q: What about the pest or weed control at 20 g/ha (BRADC; [7]) of the same compound?
A: 40%

Q: What about the pest or weed control at 30 g/ha (BRADC; [10]) of the same compound?
A: 0%

Q: What about the pest or weed control at 40 g/ha (BRADC; [8]) of the same compound?
A: 25%

Q: What about the pest or weed control at 60 g/ha (BRADC; 60 g ai/ha, read-out: observed % activity 20 DAT) of the same compound?
A: 98%

Q: And the inhibition at 40 g/ha (GALAP)?
A: 40%

Q: What about the pest or weed control at 10 g/ha (LOLMU; 10 g ai/ha) of the same compound?
A: 0%

Q: What about the pest or weed control at 20 g/ha (LOLMU; 20 g ai/ha) of the same compound?
A: 20%

Q: What about the pest or weed control at 30 g/ha (LOLMU; 30 g ai/ha) of the same compound?
A: 30%

Q: And the pest or weed control at 40 g/ha (LOLMU; 40 g ai/ha)?
A: 55%

Q: What about the pest or weed control at 30 g/ha (LOLMU; use rate 30 g ai/ha, 20 DAT) of the same compound?
A: 0%

Q: What about the inhibition at 30 g/ha (LOLMU; use rate 30 g ai/ha) of the same compound?
A: 20%

Q: And the pest or weed control at 60 g/ha (LOLMU; use rate 60 g ai/ha, 20 DAT)?
A: 30%

Q: What about the inhibition at 60 g/ha (LOLMU; use rate 60 g ai/ha) of the same compound?
A: 30%

Q: What about the inhibition at 40 g/ha (SORHA) of the same compound?
A: 95%

Q: What about the inhibition at 10 g/ha (PHACA; [1]) of the same compound?
A: 0%

Q: And the inhibition at 20 g/ha (PHACA; [2])?
A: 33%

Q: What about the pest or weed control at 10 g/ha (PHACA; [6]) of the same compound?
A: 10%

Q: And the pest or weed control at 20 g/ha (PHACA; [7])?
A: 65%

Q: And the pest or weed control at 30 g/ha (PHACA; [10])?
A: 80%

Q: What about the pest or weed control at 40 g/ha (PHACA; [8]) of the same compound?
A: 75%

Q: And the inhibition at 30 g/ha (PHACA; [4])?
A: 65%

Q: And the pest or weed control at 60 g/ha (PHACA; [9])?
A: 98%

Q: What about the inhibition at 60 g/ha (PHACA; [5]) of the same compound?
A: 98%

Q: What about the inhibition at 30 g/ha (SETFA) of the same compound?
A: 98%

Q: And the pest or weed control at 30 g/ha (ECHCG; 30 g ai/ha)?
A: 75%

Q: What about the pest or weed control at 60 g/ha (ECHCG; 60 g ai/ha) of the same compound?
A: 95%

Q: What about the pest or weed control at 30 g/ha (ECHCG; use rate 30 g ai/ha, 20 DAT) of the same compound?
A: 85%

Q: What about the inhibition at 30 g/ha (ECHCG; use rate 30 g ai/ha) of the same compound?
A: 85%

Q: What about the inhibition at 40 g/ha (AVEFA; Avena fatua, 480 h, 40 g ai/ha, 20 DAT, read-out: observed % activity) of the same compound?
A: 10%

Q: What about the “observed % activity 20 DAT” value (AVEFA; 30 g ai/ha) of the same compound?
A: 0%

Q: What about the “observed % activity 20 DAT” value (AVEFA; 40 g ai/ha) of the same compound?
A: 55%

Q: What about the “observed % activity 20 DAT” value (VIOAR) of the same compound?
A: 0%
